This test can be described thus: Binding affinity towards sigma receptor in guinea pig brain membrane was determined by using [3H]DTG as the radioligand.

Molecule `OC12C3C4CC5C6C4C1C6C(C53)N2Cc1cccc(Br)c1` (stereo unspecified) [11-(3-bromobenzyl)-11-azahexacyclo[5.4.1.02,6.03,10.04,8.09,12]dodecan-1-ol] registered a Ki of 109 nM.

By Ki is commonly meant the equilibrium dissociation constant of an inhibitor or competing ligand from its target.

The values above are taken from BindingDB's records for doi:10.1016/0960-894X(96)00067-4 (1996).
